In PubChem BioAssay AID651973 (The Scripps Research Institute Molecular Screening Center, 2013) one finds IC50 data, which are given here for 84 compounds.

The source made the active and inactive calls. How the calls were made is not given here. A value given as a limit tells only on which side of the number the result lay.

This experiment relates to Cell-based VP16 transactivation luciferase reporter, luminescence. Put plainly: VP16 transactivation reporter inhibitors, dose response, counter-screen for LRH-1 inverse agonist project, cell-based, luminescence (AID 651973).
One may read the IC50 as the midpoint of a concentration-inhibition curve. For `CCCc1cc(=O)oc2c(C)c(OCC(=O)NCCN3CCOCC3)ccc12`, the IC50 is > 35.9 µM (inactive).

`COc1cc([N+](=O)[O-])ccc1NC(=O)Cn1ccsc1=N`: the IC50 was > 35.9 µM (inactive).

As to `O=c1[nH]c(Nc2ccc3c(c2)OCCO3)nnc1Cc1ccccc1`, the IC50 was > 35.9 µM (inactive).

As for `Cc1ccc(NC(=O)CSc2nnc([C@@H]3CCCN3C(=O)OC(C)(C)C)o2)c(C)c1`, the IC50 was > 35.9 µM (inactive).

`Cc1no[n+]([O-])c1COc1ccc(/C=N/n2nnnc2N)cc1`: the IC50 was > 35.9 µM (inactive).

Take `Nc1ccc(C(=O)NN2C(=O)[C@H](Cl)C2c2ccc(Cl)cc2)cc1` (some centres undefined): the IC50 is 9.87 µM.

In the case of `CCOc1ccc(OCCN2C(=O)NC(Cc3c[nH]c4ccccc34)C2=O)cc1` (centres undefined), the IC50 is > 35.9 µM (inactive).

For `CCOc1cc(/C=N/n2nnnc2N)ccc1OCc1c(C)no[n+]1[O-]`, the IC50 is > 35.9 µM (inactive).

For `O=C(NCc1cccnc1)c1cccc2c1C(=O)N(C1CCCCC1)C2`, the IC50 was > 35.9 µM (inactive).

Turning to `CCOc1ccc(NC(=O)CSc2nncc(=O)n2N)cc1`, the IC50 is > 35.9 µM (inactive).

Take `O=C(Nc1ccc(Cc2ccncc2)cc1)c1cccc([N+](=O)[O-])c1`: the IC50 was > 35.9 µM (inactive).

For the compound `Cc1sc(NC(=O)C(C)C)c(C(=O)Nc2ccccc2)c1C`, the IC50 is > 35.9 µM (inactive).

Turning to `O=C(CN1C(=O)CCC1=O)Nc1ccc(Br)cc1`, the IC50 was > 35.9 µM (inactive).

For `Cc1ccc(NC(=O)COC(=O)C(NS(=O)(=O)c2ccc(Cl)cc2)C(C)O)cc1C` (centres undefined), the IC50 was > 35.9 µM (inactive).

In the case of `O=C(COc1ccc(S(=O)(=O)N2CCCC2)cc1Cl)Nc1ccc2c(c1)OCO2`, the IC50 is > 35.9 µM (inactive).

Regarding `CCc1cc(=O)oc2cc(C)cc(OCC(=O)NC3CC3)c12`, the IC50 is > 35.9 µM (inactive).

On to `CCC(C)NC(=O)c1ccc2c(c1)N(Cc1ccccc1)C(=O)CS2` (centres undefined), for which the IC50 was > 35.9 µM (inactive).

For the compound `COc1ccc(NC(=O)CS(=O)(=O)c2ccc(C)cc2)c(OC)c1`, the IC50 is > 35.9 µM (inactive).

With `Cc1c(NC(=S)NC(=O)c2ccc(Cl)cc2)c(=O)n(-c2ccccc2)n1C`, the IC50 was > 35.9 µM (inactive).

For the compound `CCOc1ccc(CCNC(=O)CN2C(=O)NC3(CCc4ccccc43)C2=O)cc1OCC` (centres undefined), the IC50 was > 35.9 µM (inactive).

In the case of `COc1ccc(NC(=O)CN2C(=O)NC3(CCCC3)C2=O)cc1`, the IC50 was > 35.9 µM (inactive).

Turning to `CC(O)(c1ccc(F)c(F)c1)c1nc(-c2ccc(S(C)(=O)=O)cc2)cs1` (centres undefined), the IC50 was 34.7 µM (inactive).

Take `COc1ccc(NC(=O)CSc2ccc3c(c2)OCCO3)cc1`: the IC50 is > 35.9 µM (inactive).

With `COc1ccc(CCNC(=O)COC(=O)Cc2ccccc2[N+](=O)[O-])cc1`, the IC50 was > 35.9 µM (inactive).

Take `COc1ccc(CCn2c(C)cc(C(=O)COC(=O)c3ccc(O)cc3O)c2C)cc1`: the IC50 was > 35.9 µM (inactive).

Consider `CCCc1cc(=O)oc2c(C)c(OCC(=O)NC3CC(C)(C)NC(C)(C)C3)ccc12`, for which the IC50 was > 35.9 µM (inactive).

As for `CCOc1ccc(OCCC(=O)OCC(=O)Nc2ccc3c(c2)OCCO3)cc1`, the IC50 is > 35.9 µM (inactive).

As for `COc1ccc(/C=N/NC(=O)c2ccc(NC(=O)c3cccc([N+](=O)[O-])c3)cc2)c(OC)c1`, the IC50 was > 35.9 µM (inactive).

Consider `O=C(Nc1ccc(S(=O)(=O)N2CCOCC2)cc1)c1cccc([N+](=O)[O-])c1`, for which the IC50 was > 35.9 µM (inactive).

Regarding `Cc1no[n+]([O-])c1COc1ccc(/C=C2\NC(=S)NC2=O)cc1`, the IC50 was > 35.9 µM (inactive).

With `COC(=O)c1ccc(NC(=O)CSc2nn3c(=O)c(C)nnc3s2)cc1`, the IC50 was > 35.9 µM (inactive).

`Cc1ccc2cccc(OCC(=O)NCCC3=CCCCC3)c2n1`: the IC50 was > 35.8 µM (inactive).

For the compound `CCCc1cc(=O)oc2cc(C)cc(OCC(=O)Nc3ccccn3)c12`, the IC50 is > 35.9 µM (inactive).

Turning to `CC(=O)Nc1ccc(N=c2cc([N+](=O)[O-])cc(Cl)n2O)cc1`, the IC50 is > 35.9 µM (inactive).

With `N#CCSc1ccccc1NC(=O)CN1C(=O)C2CC=CCC2C1=O` (centres undefined), the IC50 was > 35.9 µM (inactive).

For the compound `Cc1ccc(NC(=O)CSc2nc3[nH]c(=O)cc(O)c3s2)c(Br)c1`, the IC50 was > 35.9 µM (inactive).

With `Cc1ccc(C)c(NC(=O)CSc2nnc(-c3n[nH]c4ccccc34)o2)c1`, the IC50 was > 35.9 µM (inactive).

In the case of `COc1ccccc1Oc1nnnn1-c1ccc(C(N)=O)cc1`, the IC50 is > 35.9 µM (inactive).

As for `Cc1ccc(NC(=O)COC(=O)c2cc(=O)c3ccccc3o2)c(Br)c1`, the IC50 was > 35.9 µM (inactive).

`Cc1ccccc1C(=O)NC1CCN(CC(=O)Nc2ccc(Br)cc2)CC1`: the IC50 was > 35.9 µM (inactive).

For `Cc1cc(OCC(=O)NCc2cccnc2)c2c(C)c(C)c(=O)oc2c1`, the IC50 was > 35.9 µM (inactive).

For the compound `CCCc1cc(=O)oc2cc(OCC(=O)NCCc3ccc(S(N)(=O)=O)cc3)ccc12`, the IC50 was > 35.9 µM (inactive).

In the case of `COc1cc(/C=N/NC(N)=S)ccc1OCC(=O)Nc1ccc(C)cc1`, the IC50 was > 35.9 µM (inactive).

On to `Cc1cccc(NC(=O)CSc2nc3[nH]ncc3c(=O)[nH]2)c1C`, for which the IC50 was > 35.9 µM (inactive).

For the compound `CCOc1ccc(NC(=O)COC(=O)COc2cccc3c2OC(C)(C)C3)cc1`, the IC50 is > 35.9 µM (inactive).

As for `CN1CCN(c2ccc(S(=O)(=O)N3CCCCC3)cc2NC(=O)COc2ccc([N+](=O)[O-])cc2)CC1`, the IC50 was > 35.9 µM (inactive).

Turning to `COc1ccc(NC(=O)CSc2nc3nc(C)cc(C)c3c(=O)[nH]2)cc1`, the IC50 is > 35.9 µM (inactive).

Turning to `CC(=O)Nc1ccc(NC(=O)CSc2ccc(-c3ccc(-n4ccnc4)cc3)nn2)cc1`, the IC50 is > 35.9 µM (inactive).

`COc1ccc(CCNC(=O)CN2C(=O)NC3(CCCCC3)C2=O)cc1`: the IC50 was > 35.9 µM (inactive).

In the case of `COc1ccc(CC(NC(C)=O)C(=O)NC2CCN(c3nnnn3-c3ccccc3)CC2)cc1` (centres undefined), the IC50 is > 35.9 µM (inactive).

Consider `COc1ccc(S(=O)(=O)N2CCN(CC(=O)Nc3ccc(C)c(F)c3)CC2)cc1`, for which the IC50 was > 35.9 µM (inactive).

Turning to `COc1cccc(C(=O)COc2cccc(NC(=O)c3cccc([N+](=O)[O-])c3)c2)c1`, the IC50 is 8.46 µM.

As to `CCCN(CC(=O)Nc1ccccc1C)CC(=O)Nc1ccc(Br)cc1F`, the IC50 was > 35.9 µM (inactive).

Regarding `O=C(Nc1ccccc1C(=O)Nc1nccs1)c1ccccc1`, the IC50 was 14.7 µM (inactive).

Regarding `O=C(COc1ccc2c3c(c(=O)oc2c1)CCCC3)NCc1ccccn1`, the IC50 is > 35.9 µM (inactive).

`CCCc1nnc(SCC(=O)Nc2ccc(OC)cc2)o1`: the IC50 was > 35.9 µM (inactive).

Regarding `CCCc1cc(=O)oc2cc(C)cc(OCC(=O)NC3CC3)c12`, the IC50 is > 35.9 µM (inactive).

Consider `COC(=O)c1ccc(N2CCCCC2)c(NC(=O)c2ccco2)c1`, for which the IC50 was 13.3 µM (inactive).

For `O=C(NCC1CCCO1)c1ccc(NC(=O)c2cccc([N+](=O)[O-])c2)cc1` (centres undefined), the IC50 was > 35.9 µM (inactive).

For the compound `Cc1ccc(C)c(NC(=O)CSc2nc3[nH]ncc3c(=O)[nH]2)c1`, the IC50 is > 35.9 µM (inactive).

`CCn1cc(Br)c(C(=O)Nc2ccccc2C(=O)OC)n1`: the IC50 is > 35.9 µM (inactive).

Take `Cn1cc(Cl)c(C(=O)OCC(=O)Nc2ccc(S(N)(=O)=O)cc2)n1`: the IC50 is > 35.9 µM (inactive).

Take `COc1ccc(NC(=O)COC(=O)c2cc(S(=O)(=O)N3CCCC3)ccc2O)cc1`: the IC50 is > 35.9 µM (inactive).

For the compound `COc1cc(OC)cc(-c2oc3cccnc3c2C#CCCO)c1`, the IC50 is > 35.9 µM (inactive).

For `CC(=O)c1ccc(OC(C)C(=O)OCC(=O)NCCc2ccccc2)cc1` (centres undefined), the IC50 was > 35.9 µM (inactive).

On to `COC(=O)c1ccc(NC(=O)COc2cccc(-n3cnnn3)c2)cc1`, for which the IC50 is > 35.9 µM (inactive).

Take `COCCNc1ccc([N+](=O)[O-])cc1C(=O)NC1CCCc2ccccc21` (centres undefined): the IC50 is > 35.9 µM (inactive).

In the case of `CCOc1ccc(Cc2nnc(SCC(=O)Nc3ccc(C(C)=O)cc3)[nH]c2=O)cc1`, the IC50 was > 35.9 µM (inactive).

In the case of `COc1ccc(S(=O)(=O)Nc2ccc3c(c2)n(C)c(=O)n3C)cc1F`, the IC50 is > 35.9 µM (inactive).

As to `COc1ccc(OCCNC(=O)C2(C)CCN2Cc2ccc3ccccc3c2)cc1` (centres undefined), the IC50 was 23.8 µM (inactive).

Consider `Cc1cc(OCC(=O)N2CCC(O)CC2)c2c(C)cc(=O)oc2c1`, for which the IC50 was > 35.9 µM (inactive).

`COc1ccccc1NC(=O)CN1CCN(CC(=O)Nc2ccc(S(N)(=O)=O)cc2)CC1`: the IC50 is 20.4 µM (inactive).

For the compound `COc1ccc(CCNC(=O)COC(=O)c2cccn2C)cc1`, the IC50 was > 35.9 µM (inactive).

Consider `COc1ccc(NC(=O)COC(=O)c2c(-c3ccccc3)noc2C)cc1`, for which the IC50 was > 35.9 µM (inactive).

In the case of `CCc1c(C)nc(SCC(=O)Nc2ccc3c(c2)OCCO3)[nH]c1=O`, the IC50 is > 35.9 µM (inactive).

Regarding `O=C(OCC(=O)N1CCN(C(=O)COC(=O)c2ccc(O)cc2O)CC1)c1ccc(O)cc1O`, the IC50 was > 35.9 µM (inactive).

Consider `COc1cccc(NC(=O)c2oc3ccccc3c2NC(=O)C2CC2)c1`, for which the IC50 was > 35.9 µM (inactive).

As to `Cc1cc([N+](=O)[O-])ccc1NC(=O)CSc1nnc(C)n1C`, the IC50 is > 35.8 µM (inactive).

On to `Cc1onc(-c2ccccc2)c1C(=O)O/N=C(\N)c1ccc([N+](=O)[O-])o1`, for which the IC50 was > 35.9 µM (inactive).

In the case of `CCOc1ccc(NC(=O)COC(=O)C2CCC(=O)N2)c([N+](=O)[O-])c1` (centres undefined), the IC50 was > 35.8 µM (inactive).

In the case of `O=C(Nc1ccc(Br)cn1)c1ccc([N+](=O)[O-])o1`, the IC50 was > 35.9 µM (inactive).

Take `CC(C)(Oc1ccc(Cl)cc1)C(=O)OCC(=O)NCCc1ccccc1`: the IC50 was > 35.9 µM (inactive).

For the compound `CC(=O)Nc1ncc(Cc2cc(Cl)ccc2Cl)s1`, the IC50 is > 35.9 µM (inactive).

As to `CCOc1ccc(NC(=O)CSc2nccn(-c3ccc4c(c3)OCCO4)c2=O)cc1`, the IC50 was > 35.9 µM (inactive).
